Assay results from PMC9393241, “Design, Synthesis, and Activity Assays of Cyclin-Dependent Kinase 1 Inhibitors With Flavone Scaffolds” (Frontiers in Chemistry, 2022).

Columns and labels:
CDK1/cyclin B1 = molecular target: T1, CDK1/cyclin B1 (Homo sapiens, UniProt P06493); assay: In vitro anti-CDK1/cyclin B1 kinase assay (Kinase-Glo luminescence); assay type: biochemical; conditions: for Selectivity: CDK1 compared with CDK4 (CDK4 IC50 / CDK1 IC50); for inhibition at 20 µM: test compounds at 20 μM, read-out: Inhibition rates (%) CDK1
T1 construct: purchased
Protocol: (§1) In vitro anti-CDK1/cyclin B1 and CDK4/cyclin D3 assays were performed as described by the manufacturer. All test compounds and controls were dissolved in dimethyl sulfoxide (DMSO) to prepare 50 μM stock solutions. The stock solutions were diluted by double-distilled water and buffer to 40, 30, 20, and 10 μM working concentrations and stored at −20°C. Buffer, ATP, CDK substrate […], and distilled water were mixed, and then 25 μl of the mixture was added to a 96-well plate. Five microliters of 20 μM test compounds were sequentially added. CDK1/cyclin B1 was diluted to 1 ng/μl, and CDK4/cyclin D3 was diluted to 10 ng/μl using a buffer. Twenty microliters of the kinase solutions were incubated with the test compounds at 30°C for 45 min for CDK1/cyclin B1 and for 60 min for CDK4/cyclin D3. Finally, 50 μl of Kinase-Glo Max reagent was added to each well. The 96-well plate was covered with aluminum foil and incubated at room temperature for 15 min. Luminescence of the test compounds was measured with a microplate reader.

CDK4/cyclin D3 = molecular target: T2, CDK4/cyclin D3 (Homo sapiens, UniProt P11802); assay: In vitro anti-CDK4/cyclin D3 kinase assay (Kinase-Glo luminescence); assay type: biochemical; conditions: for inhibition at 20 µM: test compounds at 20 μM, read-out: Inhibition rates (%) CDK4
T2 construct: purchased
Protocol: as §1

MCF-7 tumor cell = test system: MCF-7 tumor cell; set-up: method as in Mou et al., 2021a; conditions: concentration of 50 μg/ml; ref Mou et al., 2021a; cited from earlier work
MCF-7 cells = assay: Cell growth inhibition assay (CCK-8), MCF-7; assay type: cell-based; conditions: Homo sapiens, MCF7, 24 h
Protocol: (§2) All test compounds and controls were dissolved in DMSO to prepare 250 μM stock solutions. The stock solutions were filtered through a […] and diluted into five concentrations (0.1–250 μM) with DMEM medium. MCF-7 and RAW264.7 cells were inoculated at a concentration of 5,000 cells/100 μl/well into a 96-well plate for 24 h at 37°C in a humidified atmosphere containing 5% CO2. After 24 h of culture, the primary medium was discarded and replaced with 100 μl of fresh DMEM medium containing different concentrations of test compounds in triplicate. After another 24 h of culture, the medium was replaced with 100 μl of fresh DMEM medium containing 10% (v/v) CCK-8 reagent in each well for 2 h at 37°C. The OD value was measured at a wavelength of 450 nm. Cell viability was determined using the following equation: Cell viability=(ODsample-ODnegative control/ODpositive control-ODnegative control)×100% where OD positive control is the absorbance at 450 nm obtained from untreated cells. OD negative control is the absorbance obtained from a blank well containing the cell culture medium and CCK-8 reagent. The IC50 values were calculated from the plot of activity vs. inhibitor concentration by using the GraphPad Prism 5 software ([Yu et al., 2020]).

RAW264.7 cells = assay: Cell growth inhibition assay (CCK-8), RAW264.7; assay type: cell-based; conditions: Mus musculus, 24 h
Protocol: as §2

CDK1/cyclin B kinase = molecular target: CDK1/cyclin B kinase; set-up: method as in Mou et al., 2021a; conditions: ref Mou et al., 2021a; read-out: IC50 against CDK1/cyclin B kinase; cited from earlier work

T1 sequence (P06493 whole entry): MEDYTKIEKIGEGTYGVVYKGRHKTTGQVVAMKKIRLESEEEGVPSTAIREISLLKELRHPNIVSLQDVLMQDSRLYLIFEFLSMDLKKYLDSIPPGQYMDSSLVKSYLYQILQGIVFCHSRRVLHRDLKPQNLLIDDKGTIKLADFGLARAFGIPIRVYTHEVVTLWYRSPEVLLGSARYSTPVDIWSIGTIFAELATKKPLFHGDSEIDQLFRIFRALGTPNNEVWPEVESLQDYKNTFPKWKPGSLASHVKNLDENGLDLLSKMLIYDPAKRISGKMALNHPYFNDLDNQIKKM
T1 sequence (P14635 whole entry partner): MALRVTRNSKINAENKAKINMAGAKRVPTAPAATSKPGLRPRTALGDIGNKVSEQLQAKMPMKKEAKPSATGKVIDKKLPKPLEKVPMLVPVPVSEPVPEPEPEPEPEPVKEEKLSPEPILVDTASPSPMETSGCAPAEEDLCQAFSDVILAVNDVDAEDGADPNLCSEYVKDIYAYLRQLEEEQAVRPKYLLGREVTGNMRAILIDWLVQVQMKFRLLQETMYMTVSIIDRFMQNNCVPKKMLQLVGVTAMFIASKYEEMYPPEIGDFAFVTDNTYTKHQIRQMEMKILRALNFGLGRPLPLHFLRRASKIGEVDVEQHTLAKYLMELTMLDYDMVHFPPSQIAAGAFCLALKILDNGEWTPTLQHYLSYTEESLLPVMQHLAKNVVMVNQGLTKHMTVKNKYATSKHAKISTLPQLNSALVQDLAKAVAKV
T2 sequence (P11802 whole entry): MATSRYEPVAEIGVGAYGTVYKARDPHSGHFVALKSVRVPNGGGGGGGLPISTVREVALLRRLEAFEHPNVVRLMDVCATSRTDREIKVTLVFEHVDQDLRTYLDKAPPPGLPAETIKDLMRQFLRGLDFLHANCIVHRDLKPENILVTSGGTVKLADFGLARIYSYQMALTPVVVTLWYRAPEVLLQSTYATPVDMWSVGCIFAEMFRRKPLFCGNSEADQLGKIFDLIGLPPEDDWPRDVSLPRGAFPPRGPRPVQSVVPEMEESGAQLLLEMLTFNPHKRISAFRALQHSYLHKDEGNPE
T2 sequence (P30281 whole entry partner): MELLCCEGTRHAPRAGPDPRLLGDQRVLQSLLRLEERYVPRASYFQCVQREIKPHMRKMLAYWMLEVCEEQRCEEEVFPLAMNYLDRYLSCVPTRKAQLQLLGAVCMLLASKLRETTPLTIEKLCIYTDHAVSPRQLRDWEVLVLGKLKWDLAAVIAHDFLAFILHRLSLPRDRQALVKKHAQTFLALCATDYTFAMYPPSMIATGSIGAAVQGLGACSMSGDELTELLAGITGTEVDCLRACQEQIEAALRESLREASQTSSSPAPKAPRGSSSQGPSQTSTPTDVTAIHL

CCn1cnc2c(Nc3cccc(Cl)c3)nc(NC3CCCCC3N)nc21 (stereo not drawn) [CGP74514 A, reference compound]
IC50 (CDK1/cyclin B1): 10.9 ± 0.89 µM | Selectivity (CDK1/cyclin B1): 3.28 | inhibition at 20 µM (CDK1/cyclin B1): 62.5 ± 0.05% | IC50 (CDK4/cyclin D3): 35.6 ± 1.02 µM | inhibition at 20 µM (CDK4/cyclin D3): 48.52 ± 0.04% | inhibition rate against MCF-7 tumor cell proliferation (MCF-7 tumor cell): 96.7%

O=c1cc(-c2ccccc2)oc2c(CN3CCOCC3)c3c(c(O)c12)OCCCCO3 [Compound 2a, 12-Hydroxy-7-(morpholinomethyl)-9-phenyl-2,3,4,5-tetrahydro-[1,4]dioxocino[2,3-g]chromen-11-one]
IC50 (CDK1/cyclin B1): 36.4 ± 1.12 µM | inhibition at 20 µM (CDK1/cyclin B1): 33.05 ± 0.12% | IC50 (MCF-7 cells): 79.7 ± 1.81 µM | IC50 (RAW264.7 cells): 2.54 ± 0.12 µM | melting point: 213.8 to 214.3 °C | inhibition rate against MCF-7 tumor cell proliferation (MCF-7 tumor cell): 96.7%

O=c1cc(-c2ccccc2)oc2c(CN3CCOCC3)c(O)c(CN3CCOCC3)c(O)c12 [Compound 5c, 5,7-Dihydroxy-6,8-bis(morpholinomethyl)-2-phenyl-4H-chromen-4-one]
IC50 (CDK1/cyclin B1): 39.6 ± 1.43 µM | Selectivity (CDK1/cyclin B1): 12.85 | inhibition at 20 µM (CDK1/cyclin B1): 38.34 ± 0.08% | IC50 (CDK4/cyclin D3): 508 ± 5.56 µM | inhibition at 20 µM (CDK4/cyclin D3): 8.15 ± 0.06% | IC50 (MCF-7 cells): 76.9 ± 1.47 µM | IC50 (RAW264.7 cells): 59.4 ± 1.23 µM | melting point: 199.2 to 199.6 °C

COc1ccc(-c2cc(=O)c3c(O)c(CN(C)C)c(O)c(CN(C)C)c3o2)cc1 [Compound 10d, 6,8-Bis((dimethylamino)methyl)-5,7-dihydroxy-2-(4-methoxyphenyl)-4H-chromen-4-one]
inhibition at 20 µM (CDK1/cyclin B1): 35.53 ± 0.08% | inhibition at 20 µM (CDK4/cyclin D3): 2.73 ± 0.08% | melting point: 191.6 to 193.7 °C

COc1ccc(-c2cc(=O)c3c(O)cc(OCc4ccccc4)cc3o2)cc1 [Compound 12a, 7-(Benzyloxy)-5-hydroxy-2-(4-methoxyphenyl)-4H-chromen-4-one]
inhibition at 20 µM (CDK1/cyclin B1): 32.38 ± 0.11% | inhibition at 20 µM (CDK4/cyclin D3): 6 ± 0.04% | melting point: 181.6 to 182.7 °C

COc1ccc(-c2cc(=O)c3c(O)cc(OCCBr)cc3o2)cc1 [Compound 12c, 7-(2-Bromoethoxy)-5-hydroxy-2-(4-methoxyphenyl)-4H-chromen-4-one]
IC50 (CDK1/cyclin B1): 43.6 ± 1.53 µM | inhibition at 20 µM (CDK1/cyclin B1): 37.6 ± 0.12% | inhibition at 20 µM (CDK4/cyclin D3): 1.43 ± 0.06% | IC50 (MCF-7 cells): 131 ± 2.35 µM | IC50 (RAW264.7 cells): 68.4 ± 0.99 µM | melting point: 175.2 to 175.7 °C

COc1ccc(-c2cc(=O)c3c(O)cc(OCCCCBr)cc3o2)cc1 [Compound 12d, 7-(4-Bromobutoxy)-5-hydroxy-2-(4-methoxyphenyl)-4H-chromen-4-one]
IC50 (CDK1/cyclin B1): 51.4 ± 1.56 µM | inhibition at 20 µM (CDK1/cyclin B1): 36.91 ± 0.08% | inhibition at 20 µM (CDK4/cyclin D3): 3.47 ± 0.04% | melting point: 178.9 to 179.8 °C

CN1CC[C@H](c2c(O)cc(O)c3c(=O)cc(-c4ccccc4Cl)oc23)[C@H](O)C1 [flavopiridol, reference compound]
inhibition at 20 µM (CDK1/cyclin B1): 86.79 ± 0.04% | inhibition at 20 µM (CDK4/cyclin D3): 89.71 ± 0.03% | IC50 (MCF-7 cells): 294 ± 3.13 µM | IC50 (RAW264.7 cells): 0.55 ± 0.05 µM | inhibition rate against MCF-7 tumor cell proliferation (MCF-7 tumor cell): 90.0%

C=C(C)C(=O)Oc1c(O)c(O)c2c(=O)cc(-c3ccccc3)oc2c1CN1CCN(C)CC1 [pro3o]
IC50 (CDK1/cyclin B kinase): 1.26 µM
